Measured values as given in patent US9012617B2, “Detection reagents for tyrosine kinase activity and methods of use thereof” (The Trustees of The University of Pennsylvania, priority 2011, dated 2015).

Legend:
[1] = molecular target: T1, EphA4 (Homo sapiens, UniProt P54764); experiment: EphA4 kinetics imaging in HEK 293T cells transfected with GPhosEphA and EphA4; format: cell-based; conditions: Disassociation rate of EphA4 receptor after Genistien treatment (10 μm)
T1 construct: expressed in transfected cells; host or cells: HEK 293T
T1 sequence (P54764 20-986, species assumed): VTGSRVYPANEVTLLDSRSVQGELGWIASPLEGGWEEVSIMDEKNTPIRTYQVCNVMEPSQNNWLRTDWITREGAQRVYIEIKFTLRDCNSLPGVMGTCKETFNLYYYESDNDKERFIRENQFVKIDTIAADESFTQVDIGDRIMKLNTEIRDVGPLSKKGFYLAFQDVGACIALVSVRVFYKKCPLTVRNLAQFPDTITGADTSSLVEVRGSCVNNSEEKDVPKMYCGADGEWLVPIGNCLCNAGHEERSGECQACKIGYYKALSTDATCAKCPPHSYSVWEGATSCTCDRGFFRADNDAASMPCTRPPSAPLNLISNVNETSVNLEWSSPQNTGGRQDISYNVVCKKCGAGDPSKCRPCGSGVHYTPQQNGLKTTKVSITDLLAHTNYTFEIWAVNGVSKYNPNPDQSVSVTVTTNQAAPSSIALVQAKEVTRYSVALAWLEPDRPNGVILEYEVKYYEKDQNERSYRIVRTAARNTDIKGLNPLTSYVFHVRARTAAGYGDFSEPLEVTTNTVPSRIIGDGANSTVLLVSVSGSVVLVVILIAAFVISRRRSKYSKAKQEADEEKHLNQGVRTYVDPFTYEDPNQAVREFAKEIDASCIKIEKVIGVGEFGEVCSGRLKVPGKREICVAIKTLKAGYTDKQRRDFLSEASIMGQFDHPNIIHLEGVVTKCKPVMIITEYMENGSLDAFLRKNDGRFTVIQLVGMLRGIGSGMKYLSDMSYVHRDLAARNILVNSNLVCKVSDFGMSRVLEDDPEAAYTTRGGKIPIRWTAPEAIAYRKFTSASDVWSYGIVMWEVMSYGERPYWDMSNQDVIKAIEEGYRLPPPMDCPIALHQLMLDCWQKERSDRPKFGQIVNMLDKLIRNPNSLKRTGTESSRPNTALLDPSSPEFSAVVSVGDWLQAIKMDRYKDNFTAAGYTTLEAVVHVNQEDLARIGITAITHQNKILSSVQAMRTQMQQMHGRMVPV
Description: (§1) Cells were imaged in ACSF on a spinning disk confocal (PerkinElmer) encased in a humidified temperature controlled incubator attached to a CCD-EM camera (Hamamatsu). Images were taken as a […] z-projection ([…] step size) every 20 seconds. After a 2 minute baseline, cells were treated and imaged with either DyLight 649 (Jackson Immunoresearch) labeled EphrinB2-FC or DyLight 649 labeled EphrinA1-FC (both at 500 ng/ml) for 15 minutes. Before continuing the experiment, bath was exchanged with fresh ASCF. Genistien (10 μm; Calbiochem) was added to previously imaged cells after a 2 minute baseline and imaged for an additional 15 minutes. Images were collected via Volocity software and analyzed using NIH ImageJ as detailed below.
(§2) Image analysis was conducted off-line using NIH ImageJ using both custom and standard macros. […] Ratio change was calculated as DF/F=(F−F0)/F0 (Yuste and Konnerth, 2005). Significance between conditions was determined by two-way ANOVA with Bonferroni post-hoc tests. Receptor “on” kinetics were calculated as one-phase association, and “off” kinetics were calculated as one-phase decay. All statistical measures were conducted using GraphPad Prism version 5.00 (GraphPad Software, San Diego, Calif.) on a per coverslip basis with several cells analyzed per coverslip from a minimum of three independent experiments. […]

[2] = molecular target: T2, EphB2 (Homo sapiens, UniProt P29323); experiment: EphB2 kinetics imaging in HEK 293T cells transfected with GPhosEphB and EphB2; format: cell-based; conditions: Disassociation rate of EphB2 receptor after Genistien treatment (10 μm)
T2 construct: expressed in transfected cells; host or cells: HEK 293T
T2 sequence (P29323 19-1055): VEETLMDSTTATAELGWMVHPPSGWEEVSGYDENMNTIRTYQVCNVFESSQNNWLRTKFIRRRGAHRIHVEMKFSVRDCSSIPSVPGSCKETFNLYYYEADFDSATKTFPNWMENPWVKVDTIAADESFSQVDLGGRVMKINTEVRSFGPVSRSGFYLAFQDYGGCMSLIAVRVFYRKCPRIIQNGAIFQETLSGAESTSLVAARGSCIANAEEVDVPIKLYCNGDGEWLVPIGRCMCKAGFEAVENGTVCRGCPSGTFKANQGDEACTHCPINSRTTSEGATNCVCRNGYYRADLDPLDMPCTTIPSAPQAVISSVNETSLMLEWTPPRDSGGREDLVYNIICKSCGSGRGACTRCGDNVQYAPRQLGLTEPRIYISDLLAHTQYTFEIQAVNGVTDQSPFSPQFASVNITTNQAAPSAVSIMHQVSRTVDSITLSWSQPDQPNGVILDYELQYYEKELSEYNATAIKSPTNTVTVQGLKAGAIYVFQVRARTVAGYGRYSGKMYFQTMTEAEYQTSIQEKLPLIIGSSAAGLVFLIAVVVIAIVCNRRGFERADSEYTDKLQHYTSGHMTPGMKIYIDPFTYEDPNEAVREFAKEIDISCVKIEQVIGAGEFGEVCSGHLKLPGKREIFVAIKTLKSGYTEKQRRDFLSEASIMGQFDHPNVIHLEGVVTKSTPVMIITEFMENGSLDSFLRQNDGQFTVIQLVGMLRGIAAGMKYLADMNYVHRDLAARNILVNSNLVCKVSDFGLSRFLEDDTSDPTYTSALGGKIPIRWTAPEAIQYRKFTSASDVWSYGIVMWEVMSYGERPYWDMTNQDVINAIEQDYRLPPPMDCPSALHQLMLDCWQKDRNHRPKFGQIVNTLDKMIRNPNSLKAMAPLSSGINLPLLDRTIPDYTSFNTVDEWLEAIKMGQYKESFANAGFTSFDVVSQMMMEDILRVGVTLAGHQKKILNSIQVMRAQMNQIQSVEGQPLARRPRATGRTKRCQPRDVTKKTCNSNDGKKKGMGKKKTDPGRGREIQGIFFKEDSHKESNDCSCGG
Description: as §1, §2

One phase decay Tau [1]: 0.8484 | One phase decay Tau [2]: 1.588
Structure (SMILES): O=c1c(-c2ccc(O)cc2)coc2cc(O)cc(O)c12 [Genistein]
